Results reported in patent US10166225B2, “Method for treating osteoporosis” (Exelixis, Inc., priority 2011, dated 2019).

Tested on: rat ovariectomy (OVX) model
Experiment: Short-term effects on body weight, uterine weight and bone turnover markers in the rat ovariectomy (OVX) model
Format: in vivo, rat (Sprague-Dawley)
Design: key to Body weight, change during the first week / Body weight, change during the in-life phase / Relative uterine weight at day 14 / Serum PINP levels, change during the in-life phase / Serum OC levels, change during the in-life phase / Serum CTX levels, change during the in-life phase / Serum TRACP 5b activity, change during the in-life phase: An upwards arrow (↑) indicates a statistically significant increase; a downwards arrow (↓) a statistically significant decrease; One asterisk (*) indicates a statistical significance with a p-value<0.05; two asterisks (**) with a p-value<0.01; three asterisks (***) with a p-value<0.001; NS=Non-significant
Settings: for Body weight, change during the first week / Body weight, change during the in-life phase / Relative uterine weight at day 14 / Serum CTX levels, change during the in-life phase / Serum OC levels, change during the in-life phase / Serum PINP levels, change during the in-life phase / Serum TRACP 5b activity, change during the in-life phase: OVX rats vs OVX vehicle
Excerpt: The objective of this study was to investigate short-term effects of Compound 1 on biochemical serum markers of bone metabolism in a prevention study in a rat ovariectomy (OVX) model for postmenopausal osteoporosis. 17β-estradiol (E2) was used as a reference compound. The following five experimental groups were included in the study:
Each group contained eight female rats (Sprague-Dawley) that were three months of age at the beginning of in-life phase of the study. Before the start of the in-life phase, animals were weighed, their blood samples were harvested, and animals were randomized to study groups by stratification according to body weight and serum levels of procollagen type I N-terminal propeptide (PINP). At the beginning of the in-life phase, animals were weighed and operated. Treatment was started one day after the operations and continued once a day for two weeks. Sterile water was used as vehicle in groups 1 and 2. Body weight was determined after one week of treatment and treatment doses were adjusted accordingly. After two weeks of treatment, animals were weighed, their blood samples were harvested, animals were terminated, and their relative uterine weight was determined. For analyzing short-term effects of treatments, levels of four bone metabolism biomarkers were determined in serum samples harvested before the start and at the end of the in-life phase. These biomarkers included PINP as a marker of bone formation, N-terminal mid-fragment of osteocalcin (OC) as a general marker of bone turnover, C terminal cross-linked telopeptides of type I collagen (CTX) as a marker of bone resorption, and tartrate-resistant acid phosphatase isoform 5b (TRACP 5b) as a marker of osteoclast number. Serum levels at day −7 were used as baseline levels and serum levels at day 14 as levels affected by operations and treatments.
Each group contained eight female rats (Sprague-Dawley) that were three months of age at the beginning of in-life phase of the study. Animals were randomized to study groups by stratification according to their body weight and serum levels of procollagen type I N-terminal propeptide (PINP) measured one week before the start of the in-life phase (at day −7). At the beginning of the in-life phase (at day 0), animals were weighed, animals in groups 2-5 were ovariectomized, and animals in group 1 SHAM-operated. Treatment was started one day after the operations and continued once a day for two weeks (up to day 13). Sterile water was used as vehicle in groups 1 and 2. Body weight was determined at the beginning of the in-life phase (at day 0), one week after the start of the inlife phase (at day 7), and at the end of the in-life phase (at day 14). Treatment doses were adjusted according to the latest body weight obtained. After two weeks of treatment (at day 14), animals were weighed, their blood samples were harvested, animals were terminated, and their relative uterine weight was determined. For analyzing short-term effects of treatments, levels of four bone metabolism biomarkers were measured in serum samples harvested before the start of the in-life phase (at day −7) and at the end of the in-life phase (at day 14). These biochemical serum markers included PINP, N-terminal mid-fragment of osteocalcin (OC), C-terminal cross-linked telopeptides of type I collagen (CTX), and tartrate-resistant acid phosphatase isoform 5b (TRACP 5b). Serum levels obtained at day −7 were used as baseline levels and serum levels obtained at day 14 as levels affected by surgical operations and treatments.
Biochemical markers of bone metabolism are useful tools for monitoring osteoporosis therapy and for prediction of fracture risk and long-term changes in bone mineral density (Cremers et al. 2008). […]

[1] = OVX rats, Compound 1 oral dose of 3 mg/kg/d, two weeks
[2] = OVX rats, Compound 1 oral doses of 1 and 3 mg/kg/d, two weeks

COc1cc2nccc(Oc3ccc(NC(=O)C4(C(=O)Nc5ccc(F)cc5)CC4)cc3)c2cc1OC [Compound 1, N-(4-{[6,7-bis(methyloxy)quinolin-4-yl]oxy}phenyl)-N′-(4-fluorophenyl)cyclopropane-1,1-dicarboxamide]
Body weight, change during the first week (cabozantinib 1 mg/kg/d p.o.): ↓ * | Body weight, change during the in-life phase (cabozantinib 1 mg/kg/d p.o.): ↓ * | Relative uterine weight at day 14 (cabozantinib 1 mg/kg/d p.o.): NS | Serum CTX levels, change during the in-life phase (cabozantinib 1 mg/kg/d p.o.): NS | Serum OC levels, change during the in-life phase (cabozantinib 1 mg/kg/d p.o.): NS | Serum PINP levels, change during the in-life phase (cabozantinib 1 mg/kg/d p.o.): NS | Serum TRACP 5b activity, change during the in-life phase (cabozantinib 1 mg/kg/d p.o.): NS | Body weight, change during the first week (cabozantinib 3 mg/kg/d p.o.): NS | Body weight, change during the in-life phase (cabozantinib 3 mg/kg/d p.o.): NS | Relative uterine weight at day 14 (cabozantinib 3 mg/kg/d p.o.): NS | Serum CTX levels, change during the in-life phase (cabozantinib 3 mg/kg/d p.o.): NS | Serum OC levels, change during the in-life phase (cabozantinib 3 mg/kg/d p.o.): NS | Serum PINP levels, change during the in-life phase (cabozantinib 3 mg/kg/d p.o.): ↑ * | Serum TRACP 5b activity, change during the in-life phase (cabozantinib 3 mg/kg/d p.o.): ↓ * | OVX-induced gain in body weight (OVX rats, Compound 1 oral dose of 1 mg/kg/d, two weeks): partially prevented | OVX-induced increase in serum PINP levels [1]: enhanced | OVX-induced reduction in serum TRACP 5b activity [1]: enhanced | OVX-induced increase in serum CTX levels [2]: did not affect | OVX-induced increase in serum OC levels [2]: did not affect | OVX-induced reduction in relative uterine weight [2]: did not affect
